PubChem BioAssay (NCI)
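Each compound was tested at five concentrations against cells in 96-well plates for 48 hours. The concentration for full growth arrest is given as TGI.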

Tests used:
Experiment in all cases: DTP human tumour cell line panel, 48 h
[1] = tested on: RPMI-8226 leukemia
[2] = tested on: UACC-257 melanoma
[3] = tested on: SK-MEL-5 melanoma
[4] = tested on: ACHN renal
[5] = tested on: MDA-MB-435
[6] = tested on: HS 578T breast
[7] = tested on: HL-60(TB) leukemia
[8] = tested on: BT-549 breast
[9] = tested on: NCI/ADR-RES ovarian
[10] = tested on: SN12C renal
[11] = tested on: HCT-15 colon
[12] = tested on: SW-620 colon
[13] = tested on: MOLT-4 leukemia
[14] = tested on: SF-268 CNS
[15] = tested on: HOP-62 NSCLC
[16] = tested on: OVCAR-3 ovarian
[17] = tested on: MDA-N
[18] = tested on: SK-OV-3 ovarian
[19] = tested on: MDA-MB-231 breast
[20] = tested on: MCF7 breast
[21] = tested on: IGROV1 ovarian
[22] = tested on: A498 renal
[23] = tested on: NCI-H522 lung
[24] = tested on: T-47D breast
[25] = tested on: NCI-H226 lung
[26] = tested on: KM12 colon
[27] = tested on: UACC-62 melanoma
[28] = tested on: HCC-2998 colon
[29] = tested on: OVCAR-5 ovarian
[30] = tested on: SNB-75 CNS
[31] = tested on: SK-MEL-2 melanoma
[32] = tested on: U251 CNS
[33] = tested on: CCRF-CEM leukemia
[34] = tested on: SF-295 CNS
[35] = tested on: SK-MEL-28 melanoma
[36] = tested on: OVCAR-4 ovarian
[37] = tested on: LOX IMVI melanoma
[38] = tested on: TK-10 renal
[39] = tested on: EKVX NSCLC
[40] = tested on: PC-3 prostate
[41] = tested on: SNB-19 CNS
[42] = tested on: NCI-H460 lung
[43] = tested on: DU-145 prostate
[44] = tested on: HT29 colon
[45] = tested on: HCT-116 colon
[46] = tested on: SF-539 CNS
[47] = tested on: COLO 205 colon
[48] = tested on: OVCAR-8 ovarian
[49] = tested on: MALME-3M melanoma
[50] = tested on: CAKI-1 renal
[51] = tested on: M14 melanoma
[52] = tested on: HOP-92 NSCLC
[53] = tested on: K-562 leukemia
[54] = tested on: SR leukemia
[55] = tested on: A549 NSCLC
[56] = tested on: NCI-H23 lung
[57] = tested on: 786-0 renal
[58] = tested on: RXF 393 renal
[59] = tested on: UO-31 renal

Cn1c2ccc(Cl)cc2c2ccc3c(c21)C(=O)C=CC3=O
TGI [1]: > 10 µM | TGI [2]: > 10 µM | TGI [3]: > 10 µM | TGI [4]: > 10 µM | TGI [5]: > 10 µM | TGI [6]: > 10 µM | TGI [7]: > 10 µM | TGI [8]: > 10 µM | TGI [9]: > 10 µM | TGI [10]: > 10 µM | TGI [11]: > 10 µM | TGI [12]: > 10 µM | TGI [13]: > 10 µM | TGI [14]: > 10 µM | TGI [15]: > 10 µM | TGI [16]: > 10 µM | TGI [17]: > 10 µM | TGI [18]: > 10 µM | TGI [19]: > 10 µM | TGI [20]: > 10 µM | TGI [21]: > 10 µM | TGI [22]: > 10 µM | TGI [23]: > 10 µM | TGI [24]: > 10 µM | TGI [25]: > 10 µM | TGI [26]: > 10 µM | TGI [27]: > 10 µM | TGI [28]: > 10 µM | TGI [29]: > 10 µM | TGI [30]: > 10 µM | TGI [31]: > 10 µM | TGI [32]: > 10 µM | TGI [33]: > 10 µM | TGI [34]: > 10 µM | TGI [35]: > 10 µM | TGI [36]: > 10 µM | TGI [37]: > 10 µM | TGI [38]: > 10 µM | TGI [39]: > 10 µM | TGI [40]: > 10 µM | TGI [41]: > 10 µM | TGI [42]: > 10 µM | TGI [43]: > 10 µM | TGI [44]: > 10 µM | TGI [45]: > 10 µM | TGI [46]: > 10 µM | TGI [47]: > 10 µM | TGI [48]: > 10 µM | TGI [49]: > 10 µM | TGI [50]: > 10 µM | TGI [51]: > 10 µM | TGI [52]: > 10 µM | TGI [53]: > 10 µM | TGI [54]: > 10 µM | TGI [55]: > 10 µM | TGI [56]: > 10 µM | TGI [57]: > 10 µM

O=C1Nc2cccc(Cl)c2/C1=C\c1c(-c2ccccc2)nc2n1CCS2
TGI [1]: 52.9 µM | TGI [2]: 51.4 µM | TGI [58]: 42.5 µM | TGI [3]: 51.6 µM | TGI [4]: 32.3 µM | TGI [5]: 36.5 µM | TGI [6]: 61.4 µM | TGI [7]: 41.3 µM | TGI [8]: 76.5 µM | TGI [9]: > 100 µM | TGI [10]: 31.7 µM | TGI [11]: 83.1 µM | TGI [12]: 35.2 µM | TGI [13]: 39.4 µM | TGI [14]: 66.9 µM | TGI [15]: 66.1 µM | TGI [16]: 43.5 µM | TGI [17]: 40.6 µM | TGI [18]: 65.9 µM | TGI [19]: 49 µM | TGI [20]: 39.1 µM | TGI [21]: 37.5 µM | TGI [22]: 39.4 µM | TGI [23]: > 100 µM | TGI [24]: 48.9 µM | TGI [26]: 52.1 µM | TGI [27]: 45.6 µM | TGI [28]: 46.7 µM | TGI [29]: 48.2 µM | TGI [30]: 66.8 µM | TGI [31]: 46.2 µM | TGI [32]: 47.4 µM | TGI [59]: 48.8 µM | TGI [33]: 33.1 µM | TGI [34]: > 100 µM | TGI [35]: 44.7 µM | TGI [37]: 36.3 µM | TGI [38]: 45.1 µM | TGI [39]: 74.7 µM | TGI [40]: 41.8 µM | TGI [41]: 66.1 µM | TGI [42]: 40.7 µM | TGI [43]: 44.9 µM | TGI [44]: 42.5 µM | TGI [45]: 54.6 µM | TGI [46]: 36 µM | TGI [47]: 39.5 µM | TGI [48]: 83.6 µM | TGI [49]: 46.3 µM | TGI [50]: 73.8 µM | TGI [51]: 45.2 µM | TGI [52]: 56.9 µM | TGI [53]: 55.1 µM | TGI [54]: 53.2 µM | TGI [55]: 49.1 µM | TGI [56]: 88.7 µM | TGI [57]: 36.2 µM

O=CC(O)C(O)C(O)C(O)COC(=O)NCCCCC(=O)C(F)(F)C(F)(F)C(F)(F)C(F)(F)C(F)(F)C(F)(F)C(F)(F)F (configuration not stated)
TGI [1]: > 100 µM | TGI [58]: 62.4 µM | TGI [3]: 86.8 µM | TGI [4]: > 100 µM | TGI [5]: 62.4 µM | TGI [6]: 64.6 µM | TGI [7]: > 100 µM | TGI [8]: 33.9 µM | TGI [9]: > 100 µM | TGI [10]: > 100 µM | TGI [11]: > 100 µM | TGI [12]: 42.1 µM | TGI [13]: 31.1 µM | TGI [14]: 93.5 µM | TGI [15]: 62.8 µM | TGI [16]: > 100 µM | TGI [17]: 73.5 µM | TGI [18]: 56.4 µM | TGI [19]: 47.6 µM | TGI [20]: 34 µM | TGI [21]: > 100 µM | TGI [22]: 47.5 µM | TGI [24]: > 100 µM | TGI [26]: 46.4 µM | TGI [27]: 35.1 µM | TGI [28]: 60.4 µM | TGI [29]: 33.8 µM | TGI [30]: 59.5 µM | TGI [31]: 57.5 µM | TGI [59]: > 100 µM | TGI [33]: 56 µM | TGI [34]: 59.3 µM | TGI [35]: > 100 µM | TGI [36]: > 100 µM | TGI [37]: 30.1 µM | TGI [38]: > 100 µM | TGI [40]: 41.5 µM | TGI [41]: 31.8 µM | TGI [42]: 67.6 µM | TGI [43]: > 100 µM | TGI [44]: > 100 µM | TGI [45]: 33.4 µM | TGI [46]: 39.2 µM | TGI [47]: 61.7 µM | TGI [49]: > 100 µM | TGI [50]: > 100 µM | TGI [51]: 60.2 µM | TGI [52]: 31.8 µM | TGI [53]: 58.5 µM | TGI [54]: > 100 µM | TGI [55]: > 100 µM | TGI [56]: > 100 µM | TGI [57]: > 100 µM

Cc1nc2ccc(Cl)cc2c2c1CCO2
TGI [1]: > 100 µM | TGI [2]: > 100 µM | TGI [58]: 71.3 µM | TGI [3]: > 100 µM | TGI [4]: > 100 µM | TGI [5]: > 100 µM | TGI [6]: > 100 µM | TGI [7]: > 100 µM | TGI [8]: > 100 µM | TGI [9]: > 100 µM | TGI [10]: > 100 µM | TGI [11]: > 100 µM | TGI [12]: > 100 µM | TGI [13]: > 100 µM | TGI [14]: > 100 µM | TGI [15]: > 100 µM | TGI [16]: > 100 µM | TGI [17]: > 100 µM | TGI [19]: > 100 µM | TGI [20]: > 100 µM | TGI [21]: > 100 µM | TGI [22]: > 100 µM | TGI [23]: > 100 µM | TGI [24]: > 100 µM | TGI [25]: > 100 µM | TGI [26]: > 100 µM | TGI [27]: > 100 µM | TGI [28]: > 100 µM | TGI [30]: > 100 µM | TGI [32]: > 100 µM | TGI [59]: > 100 µM | TGI [33]: > 100 µM | TGI [34]: > 100 µM | TGI [35]: > 100 µM | TGI [36]: > 100 µM | TGI [37]: > 100 µM | TGI [38]: > 100 µM | TGI [39]: > 100 µM | TGI [40]: > 100 µM | TGI [41]: > 100 µM | TGI [42]: > 100 µM | TGI [43]: > 100 µM | TGI [44]: > 100 µM | TGI [45]: > 100 µM | TGI [46]: > 100 µM | TGI [47]: > 100 µM | TGI [48]: > 100 µM | TGI [49]: > 100 µM | TGI [50]: 79.6 µM | TGI [52]: > 100 µM | TGI [53]: > 100 µM | TGI [54]: > 100 µM | TGI [55]: > 100 µM | TGI [56]: > 100 µM | TGI [57]: > 100 µM
